Legend:
[1] = in vivo, cited from earlier work
[2] = tested on: CT26 colon carcinoma cells; assay: CT26 tumor model, BNT411 alone and with oxaliplatin (Example 4); assay type: in vivo, mouse; settings: BNT411 3 mg/kg i.v. eight times; oxaliplatin 5 mg/kg i.p. four times; group mean tumor volumes test vs control
Method: FIG. 5. Anti-tumoral efficacy of BNT411 alone and in combination with oxaliplatin in a tumor mouse model. Mice (n=12 or 13 per group) subcutaneously inoculated with 2.5×10^5 CT26 colon carcinoma cells were used as tumor mouse model. Oxaliplatin was administered intraperitoneally (i.p.) (5 mg/kg, four times with 4 to 5 days between injections). BNT411 was administered i.v. at a dose level of 3 mg/kg eight times with 2 to 5 days interval between injections and at least 2 days after oxaliplatin therapy. Anti-tumor efficacy was evaluated by group mean tumor volumes in test versus control groups (vehicle only) on days 33 and 42 (at least 50% of test and control animals alive). IFNα levels in plasma were analyzed 1 h after first BNT411 administration and gp70+ T-cell populations in blood were analyzed on days 34 and 41. (A) Dosing schedule. (B) Graph showing the tumor volumes vs. days after inoculation. Group mean tumor volumes (±SEM (standard error of the mean)) for all live animals are shown. Treatment groups included nine to ten mice. Additionally, tumor volumes of animals that were euthanized due to tumor load were carried forward for as long as they were larger than the group median tumor volume (last observation carried forward (LOCF) values). Curves were discontinued for groups with less than 50% animals alive. (C) Graph showing IFNα serum level 60 min after first injection for the 4 groups (control (vehicle); BNT411 alone; oxaliplatin alone; BNT411 and oxaliplatin). IFNα levels in control and test groups are shown by vertical bars (±SEM), Statistical significance between groups is indicated by horizontal lines. P-value summary: ****=p≤0.0001; ***=p≤0.001; **=p≤0.01, […].
Serum levels of IFNα were measured by sandwich ELISA (Pbl Assay Systems) according to manufacturer's instructions.
BALB/c mice were inoculated s.c. with 2.5×10^5−5×10^5 CT26-WT into the flank, respectively. Once tumors reached palpable sizes, mice were randomly divided into treatment and control groups. Tumor volume was measured unblinded with a caliper and calculated using the formula (a×b^2)/2 (a being the largest and b being the smallest diameter of the tumor). Tumor growth was documented as mean tumor size with standard error disregarding single distant outliers. Treatment was initiated after 7-10 d with tumors having reached an average volume of about 10 mm^3. […]
Oxaliplatin was administered intraperitoneally (i.p.) (5 mg/kg, four times with 4 to 5 days between injections). […] Anti-tumor efficacy was evaluated by group mean tumor volumes in test versus control groups (vehicle only) on study days 33 and 42, (at least 50% of test and control animals alive). IFNα levels in plasma were analyzed 1 h after first BNT411 administration and gp70+ T-cell populations in blood on study days 34 and 41.

SMILES: CCc1nc2c(N)nc3ccccc3c2n1CCCCNS(C)(=O)=O [852A]
- tolerability of repeat-dose regimens [1]: not well tolerated

SMILES: CC(C)Cn1cnc2c(N)nc3ccccc3c21 [imiquimod]
- tolerability of repeated i.v. administrations at a systemically effective IFNa-inducing dose level ([1]; iv): dose limiting adverse reactions

SMILES: O=C1[O][Pt]2([NH][C@@H]3CCCC[C@H]3[NH]2)[O]C1=O [oxaliplatin, reference compound]
- anti-tumor efficacy, T/C value [2]: 50.7%
